Laboratory results published in PMC4769319, “Cohesin Releases DNA through Asymmetric ATPase-Driven Ring Opening” (Molecular Cell, 2016).

Biological target: T1, Smc1/Smc3 heterodimer with Scc1-C (cohesin) (Saccharomyces cerevisiae, UniProt P32908+P47037, P32908:E1158Q, form not given)
T1 construct: N-terminal tags; Sf9 insect cells; fluorescently labelled for MST; with Sister chromatid cohesion protein 1
T1 sequence (P32908 1-1225 E1158Q): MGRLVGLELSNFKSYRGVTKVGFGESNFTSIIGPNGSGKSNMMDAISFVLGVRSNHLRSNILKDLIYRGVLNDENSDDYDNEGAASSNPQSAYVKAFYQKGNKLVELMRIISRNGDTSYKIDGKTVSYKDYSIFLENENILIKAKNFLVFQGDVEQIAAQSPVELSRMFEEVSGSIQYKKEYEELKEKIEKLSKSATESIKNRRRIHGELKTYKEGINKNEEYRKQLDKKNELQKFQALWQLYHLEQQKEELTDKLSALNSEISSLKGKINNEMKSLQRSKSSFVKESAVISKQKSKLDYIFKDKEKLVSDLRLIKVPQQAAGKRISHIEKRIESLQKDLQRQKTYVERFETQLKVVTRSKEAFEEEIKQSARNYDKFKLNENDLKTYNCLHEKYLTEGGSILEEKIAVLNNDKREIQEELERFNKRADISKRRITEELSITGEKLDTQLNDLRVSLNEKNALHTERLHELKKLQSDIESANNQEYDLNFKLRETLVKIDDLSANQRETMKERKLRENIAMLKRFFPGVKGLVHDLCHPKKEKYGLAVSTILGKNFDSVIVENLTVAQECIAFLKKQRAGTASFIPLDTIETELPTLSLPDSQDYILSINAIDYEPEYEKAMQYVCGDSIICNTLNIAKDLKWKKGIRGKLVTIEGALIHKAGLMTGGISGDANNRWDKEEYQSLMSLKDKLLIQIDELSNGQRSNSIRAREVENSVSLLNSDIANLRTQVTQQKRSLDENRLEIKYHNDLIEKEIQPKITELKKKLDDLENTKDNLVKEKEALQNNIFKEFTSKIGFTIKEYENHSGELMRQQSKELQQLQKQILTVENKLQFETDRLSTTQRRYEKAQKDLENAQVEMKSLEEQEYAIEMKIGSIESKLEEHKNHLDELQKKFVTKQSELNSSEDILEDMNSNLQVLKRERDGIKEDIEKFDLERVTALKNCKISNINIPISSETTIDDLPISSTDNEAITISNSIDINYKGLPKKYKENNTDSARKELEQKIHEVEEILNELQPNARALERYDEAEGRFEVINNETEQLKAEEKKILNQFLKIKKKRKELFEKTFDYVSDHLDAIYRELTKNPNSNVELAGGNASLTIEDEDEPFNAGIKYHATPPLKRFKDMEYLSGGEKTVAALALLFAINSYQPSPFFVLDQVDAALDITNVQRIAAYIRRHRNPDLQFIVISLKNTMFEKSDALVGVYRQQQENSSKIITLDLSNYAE
T1 sequence (P47037 1-1230): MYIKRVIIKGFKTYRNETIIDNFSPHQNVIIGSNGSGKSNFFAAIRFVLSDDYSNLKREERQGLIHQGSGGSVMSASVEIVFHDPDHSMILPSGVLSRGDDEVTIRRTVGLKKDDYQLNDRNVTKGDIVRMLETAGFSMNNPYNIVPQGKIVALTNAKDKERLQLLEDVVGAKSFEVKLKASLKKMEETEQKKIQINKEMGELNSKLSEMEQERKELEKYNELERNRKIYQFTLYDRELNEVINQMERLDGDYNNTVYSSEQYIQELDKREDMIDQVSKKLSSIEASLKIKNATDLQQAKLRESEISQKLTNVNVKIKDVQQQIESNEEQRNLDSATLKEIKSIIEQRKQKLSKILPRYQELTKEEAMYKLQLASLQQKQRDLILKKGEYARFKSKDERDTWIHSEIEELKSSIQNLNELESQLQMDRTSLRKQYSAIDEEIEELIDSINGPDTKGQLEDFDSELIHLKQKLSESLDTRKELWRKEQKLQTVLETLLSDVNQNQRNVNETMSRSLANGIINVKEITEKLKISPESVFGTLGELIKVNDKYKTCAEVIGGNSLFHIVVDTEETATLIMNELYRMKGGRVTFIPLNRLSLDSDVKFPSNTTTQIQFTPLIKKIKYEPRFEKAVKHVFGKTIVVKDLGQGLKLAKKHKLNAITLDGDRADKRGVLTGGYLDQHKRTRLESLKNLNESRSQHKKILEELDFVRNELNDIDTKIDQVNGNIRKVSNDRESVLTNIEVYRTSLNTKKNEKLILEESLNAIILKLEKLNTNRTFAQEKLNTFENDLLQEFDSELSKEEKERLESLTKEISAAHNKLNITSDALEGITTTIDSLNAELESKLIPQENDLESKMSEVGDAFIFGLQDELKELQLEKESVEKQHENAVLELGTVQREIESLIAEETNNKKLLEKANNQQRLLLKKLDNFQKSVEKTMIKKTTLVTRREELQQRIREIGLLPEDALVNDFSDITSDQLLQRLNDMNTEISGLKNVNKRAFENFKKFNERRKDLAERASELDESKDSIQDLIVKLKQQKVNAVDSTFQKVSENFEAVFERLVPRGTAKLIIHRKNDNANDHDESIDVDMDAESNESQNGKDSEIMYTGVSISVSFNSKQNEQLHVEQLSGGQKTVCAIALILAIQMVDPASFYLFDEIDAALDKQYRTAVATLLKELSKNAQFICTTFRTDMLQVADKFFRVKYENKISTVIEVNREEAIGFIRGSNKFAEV
T1 sequence (Q12158 1-566 partner): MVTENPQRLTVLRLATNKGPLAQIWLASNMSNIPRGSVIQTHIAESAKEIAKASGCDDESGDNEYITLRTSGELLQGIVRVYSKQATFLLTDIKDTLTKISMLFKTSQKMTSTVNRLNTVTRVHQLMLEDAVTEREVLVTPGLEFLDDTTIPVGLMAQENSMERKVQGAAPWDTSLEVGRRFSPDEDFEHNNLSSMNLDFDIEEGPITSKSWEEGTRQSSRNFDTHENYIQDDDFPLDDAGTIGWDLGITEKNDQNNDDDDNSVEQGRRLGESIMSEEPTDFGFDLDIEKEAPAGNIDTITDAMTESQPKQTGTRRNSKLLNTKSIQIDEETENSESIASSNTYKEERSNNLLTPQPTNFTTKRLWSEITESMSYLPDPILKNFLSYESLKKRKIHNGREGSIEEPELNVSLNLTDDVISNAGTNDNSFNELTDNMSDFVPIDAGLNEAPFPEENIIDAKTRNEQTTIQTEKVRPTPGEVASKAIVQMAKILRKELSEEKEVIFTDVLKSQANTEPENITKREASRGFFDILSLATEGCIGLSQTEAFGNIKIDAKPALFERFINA
Test: microscale thermophoresis
Format: binding
Conditions: fluorescently labelled protein; Smc1 co-purified with Scc1-C, plus Smc3; read-out: affinity
Description: microscale thermophoresis on Smc1/Smc3 heterodimer with Scc1-C (cohesin) | Smc1 L1129V, D1164E and E1158Q mutants all had wild-type-like affinity to both ATP and ADP | wild-type and mutant cohesin complexes appear to have similar affinities to ADP

SMILES	Kd [µM]
Nc1ncnc2c1ncn2[C@@H]1O[C@H](COP(=O)(O)OP(=O)(O)O)[C@@H](O)[C@H]1O [ADP]	> 1000
Nc1ncnc2c1ncn2[C@@H]1O[C@H](COP(=O)(O)OP(=O)(O)OP(=O)(O)O)[C@@H](O)[C@H]1O [ATP]	567 ± 289
